ChEMBL document CHEMBL3352542, “Synthesis, biological evaluation and molecular modeling study of 2-(1,3,4-thiadiazolyl-thio and 4-methyl-thiazolyl-thio)-quinazolin-4-ones as a new class of DHFR inhibitors” (Bioorg Med Chem Lett, 2014)

Legend:
Escherichia coli = assay: Antimicrobial activity against Escherichia coli assessed as inhibition zone at 200 ug/disk after 24 hrs by disc-diffusion method; format: functional; details: read-out: IZ
Staphylococcus aureus = assay: Antimicrobial activity against Staphylococcus aureus assessed as inhibition zone at 200 ug/disk after 24 hrs by disc-diffusion method; format: functional; details: read-out: IZ
Candida albicans = assay: Antimicrobial activity against Candida albicans assessed as inhibition zone at 200 ug/disk after 24 hrs by disc-diffusion method; format: functional; details: read-out: IZ
[1] = Growth inhibition of human UO31 cells at 10 uM after 48 hrs; format: functional; details: UO-31, 48 h, read-out: GI
Bacillus subtilis = assay: Antimicrobial activity against Bacillus subtilis assessed as inhibition zone at 200 ug/disk after 24 hrs by disc-diffusion method; format: functional; details: read-out: IZ
HL-60(TB) = assay: Growth inhibition of human HL-60(TB) cells at 10 uM after 48 hrs; format: functional; details: HL-60, 48 h, read-out: GI
Dihydrofolate reductase = biological target: T1, Dihydrofolate reductase (Bos taurus, UniProt P00376); assay: Inhibition of bovine liver DHFR
T1 sequence (P00376 whole entry): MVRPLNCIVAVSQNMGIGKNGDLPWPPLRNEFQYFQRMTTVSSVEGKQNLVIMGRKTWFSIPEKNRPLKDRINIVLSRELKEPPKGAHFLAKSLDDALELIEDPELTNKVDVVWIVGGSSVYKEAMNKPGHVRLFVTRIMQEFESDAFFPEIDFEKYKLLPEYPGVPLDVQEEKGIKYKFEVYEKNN

Pseudomonas aeruginosa = assay: Antimicrobial activity against Pseudomonas aeruginosa assessed as inhibition zone at 200 ug/disk after 24 hrs by disc-diffusion method; format: functional; details: read-out: IZ
[2] = Growth inhibition of human HOP92 cells at 10 uM after 48 hrs; format: functional; details: HOP-92, 48 h, read-out: GI
[3] = Growth inhibition of human PC3 cells at 10 uM after 48 hrs; format: functional; details: PC-3, 48 h, read-out: GI
MDA-MB-468 = assay: Growth inhibition of human MDA-MB-468 cells at 10 uM after 48 hrs; format: functional; details: MDA-MB-468, 48 h, read-out: GI
[4] = Growth inhibition of human SF295 cells at 10 uM after 48 hrs; format: functional; details: SF-295, 48 h, read-out: GI

Structure (SMILES)	zone of inhibition at 200 µg/disc (Escherichia coli) [mm]	zone of inhibition at 200 µg/disc (Staphylococcus aureus) [mm]	zone of inhibition at 200 µg/disc (Candida albicans) [mm]	inhibition of growth at 10 µM [1] [%]	zone of inhibition at 200 µg/disc (Bacillus subtilis) [mm]	inhibition of growth at 10 µM (HL-60(TB)) [%]	IC50 (Dihydrofolate reductase) [µM]	zone of inhibition at 200 µg/disc (Pseudomonas aeruginosa) [mm]	inhibition of growth at 10 µM [2] [%]	inhibition of growth at 10 µM [3] [%]	inhibition of growth at 10 µM (MDA-MB-468) [%]	inhibition of growth at 10 µM [4] [%]
Nc1nnc(Sc2nc3ccc(Cl)cc3c(=O)n2-c2ccc(Oc3ccccc3)cc2)s1	8	8	8	17	8	12	0.4	8	–	–	–	–
COc1ccc(-n2c(Sc3nnc(N)s3)nc3cc(OC)c(OC)cc3c2=O)cc1	8	8	8	–	8	–	7	8	33.7	–	–	–
COc1cc2nc(Sc3nnc(N)s3)n(-c3ccccc3)c(=O)c2cc1OC	8	8	8	14.2	8	–	10	8	15.4	10.9	10.4	10.6
